Values after ≈ are worked out from the molar mass of the structure shown.
Legend:
Type in all cases: physicochemical
[1] = Thermodynamic solubility in FeSSIF; details: for Solubility in FeSSiF: fed state simulated intestinal fluid (FeSSIF), equilibrated at 25° C. for 24 hours; for XRPD of residue: residue of the FeSSIF solubility test, analysed by XRPD as a damp solid
Protocol: Solubility was determined by suspending sufficient compound in fed state simulated intestinal fluid (FeSSIF) to give a maximum final concentration of >3 mg/ml of the parent free-form of the compound. The suspension was equilibrated at 25° C. for 24 hours then the pH was measured. The suspension was then filtered through a glass fibre C filter. The residue was analysed by XRPD as a damp solid. The filtrate was diluted by an appropriate factor prior to analysis by HPLC. Quantitation by HPLC was performed with reference to a standard solution of approximately 0.2 mg/ml in DMSO. Different volumes of the standard, diluted and undiluted sample solutions were injected. The solubility was calculated using the peak areas determined by integration of the peak found at the same retention time as the principal peak in the standard injection. Analysis was performed on an Agilent HP1100 series system equipped with a diode array detector and using ChemStation software vB.04.03.

[2] = Salt screen assessment compared to the HCl salt
Protocol: (§1) Representative samples for the twenty-six forms were further analysed by NMR/IC and DSC. The stability of the samples after storage at 40° C./75% RH was also assessed by XRPD. Solubility in FeSSIF media was determined for selected samples. […] IC was employed to determine the molar equivalence for inorganic counterions, sulphate and phosphate.

[3] = Thermal stability from onset of DSC events; details: onsets of DSC events greater than 200° C.
Protocol: DSC data were collected on a Mettler DSC 823E equipped with a 34 position auto-sampler. The instrument was calibrated for energy and temperature using certified indium. Typically, 0.9-6 mg of each sample, in a pin-holed aluminum pan, was heated at 10° C./min from 25° C. to 350° C. A nitrogen purge at 50 ml/min was maintained over the sample. The instrument control and data analysis software was STARe v12.1.
The twenty remaining forms have thermal events occurring from as low as ˜30° C. These may be solvated/hydrated forms.

[4] = Stability post-storage at 40° C./75% RH assessed by XRPD; details: form change assessed by XRPD
Protocol: as §1

Row | Structure (SMILES) | Stability post-storage at 40° C./75% RH [4] | also measured
1 | COc1ccc(-c2c(-c3ccc(C#N)c(F)c3)nc(N3CCC(N)CC3)n(C)c2=O)cc1F [BA 1, 4-[2-(4-aminopiperidin-1-yl)-5-(3-fluoro-4-methoxyphenyl)-1-methyl-6-oxo-1,6-dihydropyrimidin-4-yl]-2-fluorobenzonitrile] | No significant | Solubility in FeSSiF [1]: 880 µg/mL (≈ 1950 µM); XRPD of residue [1]: Poor crystallinity; stability and solubility when compared to the HCl salt [2]: improved stability and solubility; thermal stability [3]: good thermal stability
2 | COc1ccc(-c2c(-c3ccc(C#N)c(F)c3)nc(N3CCC(N)CC3)n(C)c2=O)cc1F [BA 2, 4-[2-(4-aminopiperidin-1-yl)-5-(3-fluoro-4-methoxyphenyl)-1-methyl-6-oxo-1,6-dihydropyrimidin-4-yl]-2-fluorobenzonitrile] | No significant | –
3 | COc1ccc(-c2c(-c3ccc(C#N)c(F)c3)nc(N3CCC(N)CC3)n(C)c2=O)cc1F [BSA 1, 4-[2-(4-aminopiperidin-1-yl)-5-(3-fluoro-4-methoxyphenyl)-1-methyl-6-oxo-1,6-dihydropyrimidin-4-yl]-2-fluorobenzonitrile] | No form change | Solubility in FeSSiF [1]: 840 µg/mL (≈ 1860 µM); XRPD of residue [1]: BSA 1 - poor; stability and solubility when compared to the HCl salt [2]: improved stability and solubility; thermal stability [3]: good thermal stability
4 | COc1ccc(-c2c(-c3ccc(C#N)c(F)c3)nc(N3CCC(N)CC3)n(C)c2=O)cc1F [BSA 2, 4-[2-(4-aminopiperidin-1-yl)-5-(3-fluoro-4-methoxyphenyl)-1-methyl-6-oxo-1,6-dihydropyrimidin-4-yl]-2-fluorobenzonitrile] | Extra peaks observed | –
5 | COc1ccc(-c2c(-c3ccc(C#N)c(F)c3)nc(N3CCC(N)CC3)n(C)c2=O)cc1F [CA 1, 4-[2-(4-aminopiperidin-1-yl)-5-(3-fluoro-4-methoxyphenyl)-1-methyl-6-oxo-1,6-dihydropyrimidin-4-yl]-2-fluorobenzonitrile] | Pattern change | –
6 | COc1ccc(-c2c(-c3ccc(C#N)c(F)c3)nc(N3CCC(N)CC3)n(C)c2=O)cc1F [CA 2, 4-[2-(4-aminopiperidin-1-yl)-5-(3-fluoro-4-methoxyphenyl)-1-methyl-6-oxo-1,6-dihydropyrimidin-4-yl]-2-fluorobenzonitrile] | No form change | –
7 | COc1ccc(-c2c(-c3ccc(C#N)c(F)c3)nc(N3CCC(N)CC3)n(C)c2=O)cc1F [FUA 1, 4-[2-(4-aminopiperidin-1-yl)-5-(3-fluoro-4-methoxyphenyl)-1-methyl-6-oxo-1,6-dihydropyrimidin-4-yl]-2-fluorobenzonitrile] | Pattern change | –
8 | COc1ccc(-c2c(-c3ccc(C#N)c(F)c3)nc(N3CCC(N)CC3)n(C)c2=O)cc1F [FUA 2, 4-[2-(4-aminopiperidin-1-yl)-5-(3-fluoro-4-methoxyphenyl)-1-methyl-6-oxo-1,6-dihydropyrimidin-4-yl]-2-fluorobenzonitrile] | Increased | –
9 | COc1ccc(-c2c(-c3ccc(C#N)c(F)c3)nc(N3CCC(N)CC3)n(C)c2=O)cc1F [FUA 3, 4-[2-(4-aminopiperidin-1-yl)-5-(3-fluoro-4-methoxyphenyl)-1-methyl-6-oxo-1,6-dihydropyrimidin-4-yl]-2-fluorobenzonitrile] | Pattern change | –
10 | COc1ccc(-c2c(-c3ccc(C#N)c(F)c3)nc(N3CCC(N)CC3)n(C)c2=O)cc1F [MA 1, 4-[2-(4-aminopiperidin-1-yl)-5-(3-fluoro-4-methoxyphenyl)-1-methyl-6-oxo-1,6-dihydropyrimidin-4-yl]-2-fluorobenzonitrile] | Amorphous | Solubility in FeSSiF [1]: 630 µg/mL (≈ 1400 µM); XRPD of residue [1]: Amorphous
11 | COc1ccc(-c2c(-c3ccc(C#N)c(F)c3)nc(N3CCC(N)CC3)n(C)c2=O)cc1F [MA 2, 4-[2-(4-aminopiperidin-1-yl)-5-(3-fluoro-4-methoxyphenyl)-1-methyl-6-oxo-1,6-dihydropyrimidin-4-yl]-2-fluorobenzonitrile] | Pattern change | –
12 | COc1ccc(-c2c(-c3ccc(C#N)c(F)c3)nc(N3CCC(N)CC3)n(C)c2=O)cc1F [MA 3, 4-[2-(4-aminopiperidin-1-yl)-5-(3-fluoro-4-methoxyphenyl)-1-methyl-6-oxo-1,6-dihydropyrimidin-4-yl]-2-fluorobenzonitrile] | Pattern change | –
13 | COc1ccc(-c2c(-c3ccc(C#N)c(F)c3)nc(N3CCC(N)CC3)n(C)c2=O)cc1F [MLNA 1, 4-[2-(4-aminopiperidin-1-yl)-5-(3-fluoro-4-methoxyphenyl)-1-methyl-6-oxo-1,6-dihydropyrimidin-4-yl]-2-fluorobenzonitrile] | Pattern change | –
14 | COc1ccc(-c2c(-c3ccc(C#N)c(F)c3)nc(N3CCC(N)CC3)n(C)c2=O)cc1F [MLNA 2, 4-[2-(4-aminopiperidin-1-yl)-5-(3-fluoro-4-methoxyphenyl)-1-methyl-6-oxo-1,6-dihydropyrimidin-4-yl]-2-fluorobenzonitrile] | Pattern change | –
15 | COc1ccc(-c2c(-c3ccc(C#N)c(F)c3)nc(N3CCC(N)CC3)n(C)c2=O)cc1F [MSA 1, 4-[2-(4-aminopiperidin-1-yl)-5-(3-fluoro-4-methoxyphenyl)-1-methyl-6-oxo-1,6-dihydropyrimidin-4-yl]-2-fluorobenzonitrile] | No form change | Solubility in FeSSiF [1]: 1010 µg/mL (≈ 2240 µM); XRPD of residue [1]: Largely amorphous; stability and solubility when compared to the HCl salt [2]: improved stability and solubility; thermal stability [3]: good thermal stability
16 | COc1ccc(-c2c(-c3ccc(C#N)c(F)c3)nc(N3CCC(N)CC3)n(C)c2=O)cc1F [MSA 2, 4-[2-(4-aminopiperidin-1-yl)-5-(3-fluoro-4-methoxyphenyl)-1-methyl-6-oxo-1,6-dihydropyrimidin-4-yl]-2-fluorobenzonitrile] | Extra peaks observed | –
17 | COc1ccc(-c2c(-c3ccc(C#N)c(F)c3)nc(N3CCC(N)CC3)n(C)c2=O)cc1F [PHOA 2, 4-[2-(4-aminopiperidin-1-yl)-5-(3-fluoro-4-methoxyphenyl)-1-methyl-6-oxo-1,6-dihydropyrimidin-4-yl]-2-fluorobenzonitrile] | Pattern change | –
18 | COc1ccc(-c2c(-c3ccc(C#N)c(F)c3)nc(N3CCC(N)CC3)n(C)c2=O)cc1F [PHOA 3, 4-[2-(4-aminopiperidin-1-yl)-5-(3-fluoro-4-methoxyphenyl)-1-methyl-6-oxo-1,6-dihydropyrimidin-4-yl]-2-fluorobenzonitrile] | Reduced crystallinity | –
19 | COc1ccc(-c2c(-c3ccc(C#N)c(F)c3)nc(N3CCC(N)CC3)n(C)c2=O)cc1F [SUCA 1, 4-[2-(4-aminopiperidin-1-yl)-5-(3-fluoro-4-methoxyphenyl)-1-methyl-6-oxo-1,6-dihydropyrimidin-4-yl]-2-fluorobenzonitrile] | – | Solubility in FeSSiF [1]: 960 µg/mL (≈ 2130 µM); XRPD of residue [1]: Amorphous
20 | COc1ccc(-c2c(-c3ccc(C#N)c(F)c3)nc(N3CCC(N)CC3)n(C)c2=O)cc1F [SUCA 2, 4-[2-(4-aminopiperidin-1-yl)-5-(3-fluoro-4-methoxyphenyl)-1-methyl-6-oxo-1,6-dihydropyrimidin-4-yl]-2-fluorobenzonitrile] | Pattern change | –
21 | COc1ccc(-c2c(-c3ccc(C#N)c(F)c3)nc(N3CCC(N)CC3)n(C)c2=O)cc1F [TAR 1, 4-[2-(4-aminopiperidin-1-yl)-5-(3-fluoro-4-methoxyphenyl)-1-methyl-6-oxo-1,6-dihydropyrimidin-4-yl]-2-fluorobenzonitrile] | Pattern change | –
22 | COc1ccc(-c2c(-c3ccc(C#N)c(F)c3)nc(N3CCC(N)CC3)n(C)c2=O)cc1F [free base, 4-[2-(4-aminopiperidin-1-yl)-5-(3-fluoro-4-methoxyphenyl)-1-methyl-6-oxo-1,6-dihydropyrimidin-4-yl]-2-fluorobenzonitrile] | – | Solubility in FeSSiF [1]: 280 µg/mL (≈ 620 µM)
23 | COc1ccc(-c2c(-c3ccc(C#N)c(F)c3)nc(N3CCC(N)CC3)n(C)c2=O)cc1F [pTSA 2, 4-[2-(4-aminopiperidin-1-yl)-5-(3-fluoro-4-methoxyphenyl)-1-methyl-6-oxo-1,6-dihydropyrimidin-4-yl]-2-fluorobenzonitrile] | Slight change in pattern | –

Reference: patent US10047069B2, “Compositions comprising an inhibitor of lysine specific demethylase-1” (Celgene Quanticel Research, Inc., priority 2015, dated 2018)
